The source of these data is patent publication US4831026A, “2-oxa-isocephem compounds, compositions containing same and processes of using” (Otsuka Pharmaceutical Co., Ltd., priority 1985, dated 1989).

Assay [1] relates to P. mirabilis 1287. Briefly: Antimicrobial activity test: MIC by the agar plate dilution method, P. mirabilis 1287. The class given is cell-based. The method, then: (§1) In order to investigate the in vitro activity of the under-mentioned compounds against various bacteria, the minimal inhibitory concentration (MIC) values were determined by the agar plate dilution method [see Chemotherapy, 22, 1126-1128 (1974)].
(§2) Each test inoculum was adjusted to 1×10^6 cells/ml (O.D., 600 mμ: 0.07-0.16).

Assay [2] relates to M. morganii ATCC-25830. Briefly: Antimicrobial activity test: MIC by the agar plate dilution method, M. morganii ATCC-25830. The class given is cell-based. To be noted: inoculum 1×10^6 cells/ml. As for the experimental part: as §1, §2
Assay [3] has as its system K. pneumoniae NCTC-9632. Briefly: Antimicrobial activity test: MIC by the agar plate dilution method, K. pneumoniae NCTC-9632. The conditions noted are these: inoculum 1×10^6 cells/ml. The class given is cell-based. As for the experimental part:
as §1, §2

In assay [4] the test system is P. aeruginosa NCTC-10490. Briefly: Antimicrobial activity test: MIC by the agar plate dilution method, P. aeruginosa NCTC-10490. The class given is cell-based. The conditions noted are these: inoculum 1×10^6 cells/ml. The method, then: as §1, §2
Assay [5] relates to E. coli NIHJ. Briefly: Antimicrobial activity test: MIC by the agar plate dilution method, E. coli NIHJ. It is filed as cell-based. The conditions noted are these: inoculum 1×10^6 cells/ml. As for the experimental part: as §1, §2
The test system of assay [6] is S. marcescens IFO-12648. Briefly: Antimicrobial activity test: MIC by the agar plate dilution method, S. marcescens IFO-12648. The class given is cell-based. The method, then: as §1, §2
Assay [7] relates to E. coli No. 29. Briefly: Antimicrobial activity test: MIC by the agar plate dilution method, E. coli No. 29. To be noted: E. coli No. 29; inoculum 1×10^6 cells/ml. The class given is cell-based. The method, then:
as §1, §2

Assay [8] concerns S. aureus FDA-209-p. Briefly: Antimicrobial activity test: MIC by the agar plate dilution method, S. aureus FDA-209-p. The class given is cell-based, Staphylococcus aureus. To be noted: inoculum 1×10^6 cells/ml. As for the experimental part:
as §1, §2

The mark [9] stands for this setting: P. mirabilis 1287, inoculum 1×10^6 cells/ml.
The mark [10] stands for this setting: S. marcescens IFO-12648, inoculum 1×10^6 cells/ml.

Where two headings read alike, the source gives them in different places.

In general, MIC refers to the least concentration at which growth counts as inhibited. Low readings indicate a more susceptible organism, high ones a less susceptible organism. Consider “(6S,7S)-7-[2-(2-Aminothiazol-4-yl}-2methoxyiminoacetamido]-3-[(1,3,4-thiadiazol-2-yl)thiomethyl]-Δ^3 -O-2-isocephem-4-carboxylic acid trifluoroacetate (syn-isomer) [No. 15]”, for which the MIC is not above 0.025 µg/mL in assay [1] (setting [9]); not above 0.025 µg/mL in assay [2]; not above 0.025 µg/mL in assay [3]; 1.56 µg/mL in assay [4]; not above 0.025 µg/mL in assay [5]; 0.2 µg/mL in assay [6] (setting [10]). Also, the MIC in assay [7] was not above 0.025 µg/mL.
In the case of “Benzyl 7-[2-(2-chloroacetamidothiazol-4-yl)-2-cyclopentyloxyiminoacetamido]-3-[(1,3,4-thiadiazol-2- yl)thiomethyl]-Δ^3 -O-2-isocephem-4-carboxylate (syn-isomer) [Example 25]”, the MIC is not above 0.025 µg/mL in assay [1] (setting [9]); not above 0.025 µg/mL in assay [2]; 0.05 µg/mL in assay [3]; 0.78 µg/mL in assay [4]; 1.56 µg/mL in assay [8]; 0.2 µg/mL in assay [6] (setting [10]). In assay [7], this substance showed an MIC not above 0.025 µg/mL.
Consider “Benzyl7-[2-(2-aminothiazol-4-yl)-2-methoxyiminoacetamido]-3-[(carbamoyloxy)methyl]-Δ^3 -O-2-isocephem-4-carboxylate (syn-isomer) [Example 3]”, for which the MIC in assay [1] (setting [9]) was not above 0.025 µg/mL; in assay [2], not above 0.025 µg/mL; in assay [3], 0.39 µg/mL; in assay [4], 1.56 µg/mL; in assay [8], 0.39 µg/mL; in assay [6], 0.39 µg/mL. The MIC in assay [7] stood at 0.2 µg/mL.
For “Benzhydryl 7-[2-(2-tritylaminothiazol-4-yl)-2-propargyloxyiminoacetamido]-3-[(1,3,4-thiadiazol-2-yl)thiomethyl]-Δ^3 -O-2-isocephem-4-carboxylate (syn-isomer) [Example 21]”, the MIC in assay [1] (setting [9]) is not above 0.025 µg/mL; in assay [2] it was 0.05 µg/mL; in assay [3], 0.2 µg/mL; in assay [4] it was 3.13 µg/mL; in assay [8], 3.13 µg/mL; in assay [6] it was 0.39 µg/mL. The minimal inhibitory concentration (MIC) in assay [7] was 0.1 µg/mL.
Regarding “7-[2-(2-Aminothiazol-4-yl)-2-(2-chloroethoxy)iminoacetamido]-3-[(1,3,4-thiadiazol-2-yl)thiomethyl]-Δ^3 -O-2-isocephem-4-carboxylic acid (syn-isomer) [No. 9]”, the minimum inhibitory concentration (MIC) is 0.39 µg/mL in assay [1]; 0.78 µg/mL in assay [2]; 0.39 µg/mL in assay [3]; 0.78 µg/mL in assay [4]; 0.05 µg/mL in assay [8]; 0.78 µg/mL in assay [6]. In assay [7], this substance came in with a minimal inhibitory concentration (MIC) of 0.2 µg/mL.
As to “7-[2-(2-Formamidothiazol-4-yl)-2-ethoxyiminoacetamido]-3-[(1,3,4-thiadiazol-2-yl)thiomethyl-]-Δ^3 -O-2-isocephem-4-carboxylic acid (syn-isomer) [Example 31]”, the minimal inhibitory concentration (MIC) in assay [1] (setting [9]) was not above 0.025 µg/mL; in assay [2], 0.05 µg/mL; in assay [3] it was 0.1 µg/mL; in assay [4], 25 µg/mL; in assay [8], 0.39 µg/mL; in assay [6] it was 0.39 µg/mL. In addition, in assay [7], the minimum inhibitory concentration (MIC) is not above 0.025 µg/mL.
As to “7-[2-(2-Aminothiazol-4-yl)-2-[(2-butenyl)oxyimino]acetamido]-3-[(1,3,4-thiadiazol-2-yl)thiomethyl]-Δ^3 -O-2-isocephem-4-carboxylic acid trifluoroacetate (syn-isomer) [Example 38]”, the minimal inhibitory concentration (MIC) amounted to 0.2 µg/mL in assay [1] (setting [9]); 0.39 µg/mL in assay [2]; 0.2 µg/mL in assay [3]; 1.56 µg/mL in assay [4]; 0.39 µg/mL in assay [8]; 0.78 µg/mL in assay [6]. In assay [7], this substance showed an MIC of 0.1 µg/mL.
Consider “Benzyl 7-[2-(2-trichloroacetamidothiazol-4-yl)-2-methoxyiminoacetamido]-3-[(carbamoyloxy)methyl]-Δ^3 -O-2-isocephem-4-carboxylate (syn-isomer) [Example 5]”, for which the MIC was not above 0.025 µg/mL in assay [1] (setting [9]); 0.05 µg/mL in assay [2]; 0.1 µg/mL in assay [3]; 25 µg/mL in assay [4]; 3.13 µg/mL in assay [8]; 0.2 µg/mL in assay [6] (setting [10]). Moreover, the MIC in assay [7] is 0.1 µg/mL.
For “Benzhydryl 7-[2-(2-tritylaminothiazol-4-yl)-2-(2fluoroethoxy)iminoacetamido-]-3-[(1,3,4-thiadiazol-2-yl)thiomethyl]-Δ^3 -O-2-isocephem-4-carboxylate (syn-isomer) [Example 48]”, the minimal inhibitory concentration (MIC) in assay [1] (setting [9]) is not above 0.025 µg/mL; in assay [2], not above 0.025 µg/mL; in assay [3] it was 0.2 µg/mL; in assay [4] it was 6.25 µg/mL; in assay [8] it was 0.78 µg/mL; in assay [6], 0.39 µg/mL. For the same substance, the MIC in assay [7] is not above 0.025 µg/mL.
Turning to “7-[2-(2-Chloroacetamidothiazol-4-yl)-2-methoxyiminoacetamido]-3-[(1,4,5,6-tetrahydro-4-methyl-5,6-dioxo-1,2,4-triazin-3-yl)thiomethyl]-Δ^3 -O-2-isocephem-4-carboxylic acid (syn-isomer) [Example 17]”, the minimal inhibitory concentration (MIC) in assay [1] (setting [9]) is not above 0.025 µg/mL; in assay [2], not above 0.025 µg/mL; in assay [3], not above 0.025 µg/mL; in assay [4], 6.25 µg/mL; in assay [8], 0.2 µg/mL; in assay [6] (setting [10]) it was not above 0.025 µg/mL. Also, the minimal inhibitory concentration (MIC) in assay [7] was not above 0.025 µg/mL.
Take “7-[2-(Thiazol-4-yl)-2-carboxymethoxyiminoacetamido]-Δ^3 -O-2-isocephem-4-carboxylic acid (syn-isomer) [No. 6]”: the MIC was not above 0.025 µg/mL in assay [1] (setting [9]); 0.05 µg/mL in assay [2]; 0.2 µg/mL in assay [3]; 12.5 µg/mL in assay [4]; 0.39 µg/mL in assay [8]; 0.2 µg/mL in assay [6] (setting [10]). Also, the minimal inhibitory concentration (MIC) in assay [7] is 0.1 µg/mL.
Take “Benzhydryl (6S,7S)-7-[2-(2-aminothiazol-4-yl)-2-methoxyiminoacetamido]-3-[(1,3,4-thiadiazol-2-yl)thiomethyl]-Δ^3 -O-2-isocephem-4-carboxylate (syn-isomer) [Example 59]”: the MIC was not above 0.025 µg/mL in assay [1] (setting [9]); not above 0.025 µg/mL in assay [2]; not above 0.025 µg/mL in assay [3]; 25 µg/mL in assay [4]; 0.39 µg/mL in assay [8]; 0.39 µg/mL in assay [6]. Also, the MIC in assay [7] is not above 0.025 µg/mL.
Turning to “7-[2-(2-Formamidothiazol-4-yl)-2-(2-chloroethoxy)iminoacetamido]-3-[(1,3,4- thiadiazol-2-yl)thiomethyl-]-Δ^3 -O-2-isocephem-4-carboxylic acid (syn-isomer) [Example 33]”, the minimum inhibitory concentration (MIC) in assay [1] (setting [9]) turned out to be 0.05 µg/mL; in assay [2], 0.2 µg/mL; in assay [3], 0.1 µg/mL; in assay [4], 1.56 µg/mL; in assay [5], 0.1 µg/mL; in assay [6] it was 0.78 µg/mL. This substance also came in with a minimal inhibitory concentration (MIC) in assay [7] of 0.2 µg/mL.
“7-[2-(2-Aminothiazol-4-yl)-2-propargyloxyiminoacetamido]3-[(1,3,4-thiadiazol-2-yl)thiomethyl-66^3 -O-b 2-isocephem-4-carboxylic acid trifluoroacetate (syn-isomer) [No. 7]”: the MIC is not above 0.025 µg/mL in assay [1] (setting [9]); 0.05 µg/mL in assay [2]; 0.1 µg/mL in assay [3]; 0.78 µg/mL in assay [4]; not above 0.025 µg/mL in assay [5]; 0.2 µg/mL in assay [6] (setting [10]). In addition, the MIC in assay [7] was 0.1 µg/mL.
As to “Benzhydryl 7-[2-(2-tritylaminothiazol-4-yl)-2-cyclopropylmethyloxyiminoacetamido-]-3- (1,3,4-thiadiazol-2-yl)thiomethyl]-Δ^3 -O-2-isocephem-4-carboxylate (syn-isomer) [Example 35]”, the MIC came to 0.2 µg/mL in assay [1] (setting [9]); 0.39 µg/mL in assay [2]; 0.2 µg/mL in assay [3]; 0.39 µg/mL in assay [4]; 0.2 µg/mL in assay [8]; 0.39 µg/mL in assay [6]. This substance also displayed a minimum inhibitory concentration (MIC) in assay [7] of 0.2 µg/mL.
Consider “Benzyl 7-[2-(2-trifluoroacetamidothiazol-4-yl)-2-methoxyiminoacetamido]-3-[(carbamoyloxy)methyl]-Δ^3 -O-2-isocephem-4-carboxylate (syn-isomer) [Example 4]”, for which the MIC in assay [1] (setting [9]) was not above 0.025 µg/mL; in assay [2], not above 0.025 µg/mL; in assay [3] it was 0.1 µg/mL; in assay [4], 6.25 µg/mL; in assay [8], 0.78 µg/mL; in assay [6] (setting [10]), 0.2 µg/mL. In addition, the minimum inhibitory concentration (MIC) in assay [7] was 0.05 µg/mL.
